Values of other authors as cited in patent US9603803B2, “Process for preparing spray dried formulations of 4-[[6-amino-5-bromo-2-[(4-cyanophenyl)amino]-4-pyrimidinyl]oxy]-3,5-dimethylbenzonitrile” (JANSSEN SCIENCES IRELAND UC, priority 2006, dated 2017).

For `Cc1cc(C#N)cc(C)c1Oc1nc(Nc2ccc(C#N)cc2)nc(N)c1Br` [TMC125, 4-[[6-amino-5-bromo-2-[(4-cyanophenyl)amino]-4-pyrimidinyl]oxy]-3,5-dimethylbenzonitrile], the “activity against wild type HIV” value (wild type HIV) is given as “pronounced activity”, the water-solubility is given as “poor” and the “activity against many mutated variants” value (many mutated variants) is given as “pronounced activity”.
